Measurements as given in PubChem BioAssay AID1963974 (Molecular Pharmacology Branch, DTP, NCI, 2024).

Tested on: 648629-189-R-J1-PDC spheroids with HUVEC/MSC, viability
Assay: Anticancer human tumor 648629-189-R-J1-PDC patient-derived bladder carcinoma cell line growth inhibition [PI3K]
Conditions: for viability, T/C: stronger effect = lower value
In short: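 Combination activity was assessed by viability in multicellular tumor spheroids carrying HUVEC and MSC components. Agents were tested with PI3K inhibitors from a Cmax-based top dose (or 10 microM) downward in half-log increments.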

[1] = curve of first compound, second compound 0.0316 µM
[2] = curve of first compound, second compound 0.1 µM
[3] = curve of first compound, second compound 0.316 µM
[4] = curve of first compound, second compound 1 µM
[5] = second compound 0.0316 µM, first compound 0.0316 µM
[6] = second compound 0.0316 µM, first compound 0.1 µM
[7] = second compound 0.0316 µM, first compound 0.316 µM
[8] = second compound 0.0316 µM, first compound 1 µM
[9] = second compound 0.0316 µM, first compound 3.16 µM
[10] = second compound 0.0316 µM, first compound 10 µM
[11] = second compound 0.1 µM, first compound 0.0316 µM
[12] = second compound 0.1 µM, first compound 0.1 µM
[13] = second compound 0.1 µM, first compound 0.316 µM
[14] = second compound 0.1 µM, first compound 1 µM
[15] = second compound 0.1 µM, first compound 3.16 µM
[16] = second compound 0.1 µM, first compound 10 µM
[17] = second compound 0.316 µM, first compound 0.0316 µM
[18] = second compound 0.316 µM, first compound 0.1 µM
[19] = second compound 0.316 µM, first compound 0.316 µM
[20] = second compound 0.316 µM, first compound 1 µM
[21] = second compound 0.316 µM, first compound 3.16 µM
[22] = second compound 0.316 µM, first compound 10 µM
[23] = second compound 1 µM, first compound 0.0316 µM
[24] = second compound 1 µM, first compound 0.1 µM
[25] = second compound 1 µM, first compound 0.316 µM
[26] = second compound 1 µM, first compound 1 µM
[27] = second compound 1 µM, first compound 3.16 µM
[28] = second compound 1 µM, first compound 10 µM
[29] = curve of first compound, second compound 3.16 µM
[30] = curve of first compound, second compound 10 µM
[31] = second compound 3.16 µM, first compound 0.0316 µM
[32] = second compound 3.16 µM, first compound 0.1 µM
[33] = second compound 3.16 µM, first compound 0.316 µM
[34] = second compound 3.16 µM, first compound 1 µM
[35] = second compound 3.16 µM, first compound 3.16 µM
[36] = second compound 3.16 µM, first compound 10 µM
[37] = second compound 10 µM, first compound 0.0316 µM
[38] = second compound 10 µM, first compound 0.1 µM
[39] = second compound 10 µM, first compound 0.316 µM
[40] = second compound 10 µM, first compound 1 µM
[41] = second compound 10 µM, first compound 3.16 µM
[42] = second compound 10 µM, first compound 10 µM
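Further: spheroids exposed to agents for seven days before reading.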
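Wherever viability, T/C is given: percent of vehicle control luminescence where 100% = DMSO treated spheroids.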

CC1(C)CCC(Nc2ncc(C(F)(F)F)c(-c3c[nH]c4c(P(C)(C)=O)c(C#N)ccc34)n2)CN1 (configuration not stated) + COc1c(OCCCN2CCOCC2)ccc2c3n(c(=NC(=O)c4cnc(N)nc4)nc12)CCN3
IC50 (curve of first compound, second compound 0.00316 µM): < 0.0316 µM
IC50 (curve of first compound, second compound 0.01 µM): < 0.0316 µM
IC50 [1]: < 0.0316 µM
IC50 [2]: < 0.0316 µM
IC50 [3]: < 0.0316 µM
IC50 [4]: < 0.0316 µM
viability, T/C (second compound 0.00316 µM, first compound 0.0316 µM): 25.2%
viability, T/C (second compound 0.00316 µM, first compound 0.1 µM): 25.7%
viability, T/C (second compound 0.00316 µM, first compound 0.316 µM): 31.6%
viability, T/C (second compound 0.00316 µM, first compound 1 µM): 31.4%
viability, T/C (second compound 0.00316 µM, first compound 3.16 µM): 41.1%
viability, T/C (second compound 0.00316 µM, first compound 10 µM): 4.79%
viability, T/C (second compound 0.01 µM, first compound 0.0316 µM): 28.9%
viability, T/C (second compound 0.01 µM, first compound 0.1 µM): 25.2%
viability, T/C (second compound 0.01 µM, first compound 0.316 µM): 25.1%
viability, T/C (second compound 0.01 µM, first compound 1 µM): 30.8%
viability, T/C (second compound 0.01 µM, first compound 3.16 µM): 35.1%
viability, T/C (second compound 0.01 µM, first compound 10 µM): 3.26%
viability, T/C [5]: 26.3%
viability, T/C [6]: 23.6%
viability, T/C [7]: 26.5%
viability, T/C [8]: 27.7%
viability, T/C [9]: 31%
viability, T/C [10]: 9.93%
viability, T/C [11]: 22%
viability, T/C [12]: 22.2%
viability, T/C [13]: 19.9%
viability, T/C [14]: 21.8%
viability, T/C [15]: 21%
viability, T/C [16]: 1.86%
viability, T/C [17]: 15.5%
viability, T/C [18]: 13.7%
viability, T/C [19]: 13.2%
viability, T/C [20]: 16.3%
viability, T/C [21]: 12.5%
viability, T/C [22]: 1.02%
viability, T/C [23]: 6.13%
viability, T/C [24]: 5.76%
viability, T/C [25]: 6.72%
viability, T/C [26]: 8.34%
viability, T/C [27]: 7.64%
viability, T/C [28]: 1.32%

C=CC(=O)N1CCN(c2nc(=O)n(-c3c(C)ccnc3C(C)C)c3nc(-c4c(O)cccc4F)c(F)cc23)C(C)C1 (configuration not stated) + Cc1nc(NC(=O)N2CCCC2C(N)=O)sc1-c1ccnc(C(C)(C)C(F)(F)F)c1
IC50 [1]: > 10 µM
IC50 [2]: > 10 µM
IC50 [3]: > 10 µM
IC50 [4]: > 10 µM
IC50 [29]: > 10 µM
IC50 [30]: < 0.0316 µM
viability, T/C [5]: 99%
viability, T/C [6]: 101%
viability, T/C [7]: 107%
viability, T/C [8]: 105%
viability, T/C [9]: 113%
viability, T/C [10]: 82.8%
viability, T/C [11]: 92.2%
viability, T/C [12]: 102%
viability, T/C [13]: 107%
viability, T/C [14]: 99%
viability, T/C [15]: 106%
viability, T/C [16]: 90.3%
viability, T/C [17]: 83.5%
viability, T/C [18]: 95%
viability, T/C [19]: 95.6%
viability, T/C [20]: 96.3%
viability, T/C [21]: 107%
viability, T/C [22]: 84.7%
viability, T/C [23]: 73.4%
viability, T/C [24]: 82.7%
viability, T/C [25]: 87.5%
viability, T/C [26]: 86.5%
viability, T/C [27]: 88.2%
viability, T/C [28]: 79.7%
viability, T/C [31]: 61.2%
viability, T/C [32]: 57.5%
viability, T/C [33]: 65%
viability, T/C [34]: 72%
viability, T/C [35]: 72.5%
viability, T/C [36]: 70.8%
viability, T/C [37]: 39.5%
viability, T/C [38]: 40.7%
viability, T/C [39]: 42.4%
viability, T/C [40]: 41.5%
viability, T/C [41]: 47.1%
viability, T/C [42]: 38.4%

C[C@@H](NC(=O)c1ncnc(N)c1Cl)c1ncc(C(=O)Nc2cc(C(F)(F)F)c(Cl)cn2)s1 + CC(Nc1ncnc2nc[nH]c12)c1cc2cccc(Cl)c2c(=O)n1-c1ccccc1
IC50 [1]: > 10 µM
IC50 [2]: > 10 µM
IC50 [3]: > 10 µM
IC50 [4]: > 10 µM
IC50 [29]: > 10 µM
IC50 [30]: > 10 µM
viability, T/C [5]: 98.8%
viability, T/C [6]: 104%
viability, T/C [7]: 111%
viability, T/C [8]: 108%
viability, T/C [9]: 118%
viability, T/C [10]: 130%
viability, T/C [11]: 113%
viability, T/C [12]: 97.2%
viability, T/C [13]: 112%
viability, T/C [14]: 109%
viability, T/C [15]: 112%
viability, T/C [16]: 113%
viability, T/C [17]: 105%
viability, T/C [18]: 110%
viability, T/C [19]: 102%
viability, T/C [20]: 118%
viability, T/C [21]: 112%
viability, T/C [22]: 115%
viability, T/C [23]: 115%
viability, T/C [24]: 89%
viability, T/C [25]: 113%
viability, T/C [26]: 114%
viability, T/C [27]: 113%
viability, T/C [28]: 116%
viability, T/C [31]: 112%
viability, T/C [32]: 98.5%
viability, T/C [33]: 98.3%
viability, T/C [34]: 104%
viability, T/C [35]: 107%
viability, T/C [36]: 104%
viability, T/C [37]: 103%
viability, T/C [38]: 81%
viability, T/C [39]: 78.8%
viability, T/C [40]: 86.5%
viability, T/C [41]: 91.8%
viability, T/C [42]: 85.1%

Cn1ncc(Cl)c1-c1cc(C(=O)NC(CN)Cc2cccc(F)c2)sc1Cl (configuration not stated)
viability, T/C (compound 0.0316 µM): 111% [middle of 4 runs]
viability, T/C (compound 0.1 µM): 86.8% [middle of 4 runs]
viability, T/C (compound 0.316 µM): 72.9% [middle of 4 runs]
viability, T/C (compound 1 µM): 35.3% [middle of 4 runs]
viability, T/C (compound 3.16 µM): 25% [middle of 4 runs]
IC50 (curve of compound): 818 nM [middle of 4 runs]
